This note sets out measurements from paper PMC4171207 (Antiviral research, 2014).

In data set [1] the test system is VZV-BAC-Luc. The experiment in a line: microbe, parasite or virus in culture. The note with it: for SI (CC50/EC50): selectivity index in HFFs. The class given is cell-based, varicella-zoster virus.
Another data set deals with 5-FU catabolism. Briefly: LC-MS/MS analysis of 5-fluorouracil metabolism in mice. Type of data set: in vivo, BALB/c mice. The conditions noted are these: for 5-FU concentration in plasma: 5-FU 30 mg/kg i.v. plus test drug 10 mg/kg p.o.
For data set [2], the system named is VZV-BAC-Luc. Type of data set: in vivo, varicella-zoster virus. The note with it: SCID-Hu mice.
The subject of data set [3] is VZV-BAC-Luc. Briefly: VZV yield in HFFs by quantitative real-time PCR. The class given is cell-based, varicella-zoster virus. For orientation: Real-time PCR tracks product formation cycle by cycle.
The conditions of data set [4]: for Ratio to Plasma: 2 h post final treatment.
Data set [5] relates to VZV-BAC-Luc. Briefly: Drug synergy assay. Type of data set: cell-based, varicella-zoster virus. The note with it: HFFs, 48 h, VZV yield by bioluminescence.
Data set [6] has as its system human foreskin fibroblasts (HFFs). The experiment in a line: Neutral red cytotoxicity assay in HFFs. Type of data set: cell-based.
The test system of data set [7] is VZV-BAC-Luc. Briefly: VZV-BAC-Luc in skin organ culture. The class given is cell-based, varicella-zoster virus. The conditions noted are these: read-out: EC50 in SOC; 6 dpi, bioluminescence imaging, mean ± SD.

Structures can show the parent of a compound that is named as a salt. Where two headings read alike, the source gives them in different places. Marks after values point to notes of the source that are not given here.

Regarding `Nc1nc2c(ncn2COCCO)c(=O)[nH]1` [ACV, Acyclovir, reference compound], the Mortality (120 mg/kg/day) is 0/11.
What is called EC50 is the concentration that produces a half-maximal response. Turning to `O=C(O)P(=O)(O)O` [PFA, sodium phosphonoformate tribasic hexahydrate, reference compound], the EC50 with VZV-BAC-Luc [1] (Human alphaherpesvirus 3, read-out: EC50 in HFFs) turned out to be 40000 nM.
As for `O=c1[nH]c(=O)n([C@H]2C[C@H](O)[C@@H](CO)O2)cc1/C=C/Br` [BVdU, (E)-5-(2-Bromovinyl)-2′-deoxyuridine], the “5-FU concentration in plasma” value worked out at 945 nM in the data set on 5-FU catabolism (30 min) and 685 nM with 5-FU catabolism (60 min). Moreover, the “effect on 5-FU catabolism” value in the data set on 5-FU catabolism (mice, 10 mg/kg p.o. with 5-FU 30 mg/kg i.v.) is “interfered with 5-FU catabolism”.
With `CC(C)[C@H](N)C(=O)OCCOCn1cnc2c(=O)[nH]c(N)nc21` [VACV, Valacyclovir HCl, reference compound], the “Ave. VZV Growth Rate (± SD)” value with VZV-BAC-Luc [2] (120 mg/kg/day oral gavage) is on record as 0.40 (0.09) Log10(photons/s/day); in the data set on VZV-BAC-Luc [2] (200 mg/kg/day oral gavage) it was 0.27 (0.07) ^* Log10(photons/s/day); in the data set with VZV-BAC-Luc [2] (200 mg/kg/day oral gavage, listed as Valacyclovir), 0.27 ± 0.07 Log10(photons/s/day). Moreover, the “effect on VZV replication” value in the data set on VZV-BAC-Luc [2] (120 mg/kg/day) is “had no effect on VZV replication”. Also, the “ABWD (±SD), Average Body Weight Difference from Days 0–7” value is listed as −2.9 (1.2) ^* grams (120 mg/kg/day) and −3.6 (1.5) ^* grams (200 mg/kg/day). Further, the Mortality is, setting by setting: (120 mg/kg/day) 0/11; (200 mg/kg/day) 0/10.
In general, CC50 refers to the concentration at which the toxic effect on the cells reaches its halfway point. Read a high CC50 as better tolerance by the cells. `O=c1ccn(C2OC(CO)OC2/C=C/Br)c(=O)[nH]1` [L-BHDU (1), β-L-1-[5-(E-2-Bromovinyl)-2-(hydroxymethyl)-1,3-(dioxolan-4-yl)] uracil]: in the data set with VZV-BAC-Luc [3], the “VZV genome copy number” value is given as “reduced VZV genome copy number”. Moreover, the EC50 in the data set on VZV-BAC-Luc [3] (read-out: EC50 determined by qPCR, VZV genomes) was approximately 70 nM; with VZV-BAC-Luc [7], 240 ± 20 nM; with VZV-BAC-Luc [1] (read-out: EC50 in HFFs, 48 hpi, bioluminescence imaging, mean ± SD), 220 ± 10 nM. Moreover, the “concentration in human skin implants relative to EC50” value in data set [4] (8 mg/kg/day) stood at 10 fold. The “Ratio to Plasma” value in data set [4] (Brain, 8 mg/kg/day) was 0.4 (0.3); in data set [4] (Brain, 150 mg/kg/day), 0.1 (0.03); in [4] (Heart, 8 mg/kg/day) it was 2.9 (2.5); in data set [4] (Heart, 150 mg/kg/day), 1.0 (0.2); in [4] (Kidney, 8 mg/kg/day), 5.1 (3.1); in data set [4] (Kidney, 150 mg/kg/day), 2.1 (0.4). Also, the “Ratio to Plasma” value is listed as 4.5 (1.1) in data set [4] (Liver, 8 mg/kg/day); 1.5 (0.3) in data set [4] (Liver, 150 mg/kg/day); 11.2 (5.7) in [4] (Lung, 8 mg/kg/day); 2.3 (0.5) in data set [4] (Lung, 150 mg/kg/day); 1 in data set [4] (Plasma, 8 mg/kg/day); 1 in data set [4] (Plasma, 150 mg/kg/day). Also, the “Ratio to Plasma” value is recorded as 3.1 (2.6) in data set [4] (Skin (Human) xenograft, 8 mg/kg/day); 3.0 (2.5) in data set [4] (Skin (Mouse), 8 mg/kg/day); 0.9 (0.2) in [4] (Skin (Mouse), 150 mg/kg/day); 2.1 (1.3) in [4] (Spleen, 8 mg/kg/day); 1.4 (0.2) in [4] (Spleen, 150 mg/kg/day). Further, the “interaction with ACV, BVdU and PFA” value in the data set on VZV-BAC-Luc [5] is “antagonized the activity of ACV, BVdU and foscarnet”. Further, the “cytotoxicity at 200 μM” value in [6] (200 μM, 3 days) is reported as “noncytotoxic”. In data set [6] (72 h, neutral red assay), the CC50 was more than 200000 nM. Moreover, the “Ave. VZV Growth Rate (± SD)” value in the data set on VZV-BAC-Luc [2] (8 mg/kg/day oral gavage) is 0.33 (0.03) Log10(photons/s/day); with VZV-BAC-Luc [2] (8 mg/kg/day oral gavage, listed as L-BHDU), 0.33 ± 0.03 Log10(photons/s/day); in the data set with VZV-BAC-Luc [2] (15 mg/kg/day oral gavage) it was 0.25 (0.09) ^* Log10(photons/s/day); in the data set with VZV-BAC-Luc [2] (15 mg/kg/day oral gavage, listed as L-BHDU), 0.25 ± 0.9 Log10(photons/s/day); in the data set on VZV-BAC-Luc [2] (150 mg/kg/day oral gavage) it was 0.22 (0.06) ^* Log10(photons/s/day); in the data set with VZV-BAC-Luc [2] (150 mg/kg/day oral gavage, listed as L-BHDU), 0.22 ± 0.6 Log10(photons/s/day). In addition, the “SI (CC50/EC50)” value with VZV-BAC-Luc [1] and with VZV-BAC-Luc [1] (listed as L-BHDU) was more than 909 throughout. Besides, the Mortality is, setting by setting: (8 mg/kg/day) 1/5; (15 mg/kg/day) 0/5; (150 mg/kg/day) 0/5. For the same molecule, for the setting “mouse, in vivo”, the “overt toxicity in vivo” value is listed as “No overt toxicity”. Moreover, under “mouse, in vivo”, the weight loss result is reported as “moderate weight loss”.
For the molecule `O=c1[nH]cc(F)c(=O)[nH]1` [5-FU, 5-fluorouracil], in the data set with 5-FU catabolism (30 min, 5-FU alone 30 mg/kg i.v.), the “5-FU in plasma (average AUC)” value amounted to 1246 nM. The 5-FU in plasma entry with 5-FU catabolism (60 min, 5-FU alone 30 mg/kg i.v.) is given as “undetectable”.
